Here are results for 17 compounds from US20260374782A1, “NEW COMPOUNDS, PROCESSES FOR PREPARING THE SAME AND THEIR USE AS DRUGS” (B&A ONCOMEDICAL, priority 2022, published 2026).

By inhibition is commonly meant the drop in the measured response relative to a control, in per cent.

SMILES strings stand for the structures. Like-named read-outs stand apart in the source and are kept apart here.

In series [1] the target is T1, NKCC1 (Homo sapiens, UniProt P55011).
T1 construct: endogenous in cells; host or cells: native HEK293 cells
T1 sequence (P55011 1-1212): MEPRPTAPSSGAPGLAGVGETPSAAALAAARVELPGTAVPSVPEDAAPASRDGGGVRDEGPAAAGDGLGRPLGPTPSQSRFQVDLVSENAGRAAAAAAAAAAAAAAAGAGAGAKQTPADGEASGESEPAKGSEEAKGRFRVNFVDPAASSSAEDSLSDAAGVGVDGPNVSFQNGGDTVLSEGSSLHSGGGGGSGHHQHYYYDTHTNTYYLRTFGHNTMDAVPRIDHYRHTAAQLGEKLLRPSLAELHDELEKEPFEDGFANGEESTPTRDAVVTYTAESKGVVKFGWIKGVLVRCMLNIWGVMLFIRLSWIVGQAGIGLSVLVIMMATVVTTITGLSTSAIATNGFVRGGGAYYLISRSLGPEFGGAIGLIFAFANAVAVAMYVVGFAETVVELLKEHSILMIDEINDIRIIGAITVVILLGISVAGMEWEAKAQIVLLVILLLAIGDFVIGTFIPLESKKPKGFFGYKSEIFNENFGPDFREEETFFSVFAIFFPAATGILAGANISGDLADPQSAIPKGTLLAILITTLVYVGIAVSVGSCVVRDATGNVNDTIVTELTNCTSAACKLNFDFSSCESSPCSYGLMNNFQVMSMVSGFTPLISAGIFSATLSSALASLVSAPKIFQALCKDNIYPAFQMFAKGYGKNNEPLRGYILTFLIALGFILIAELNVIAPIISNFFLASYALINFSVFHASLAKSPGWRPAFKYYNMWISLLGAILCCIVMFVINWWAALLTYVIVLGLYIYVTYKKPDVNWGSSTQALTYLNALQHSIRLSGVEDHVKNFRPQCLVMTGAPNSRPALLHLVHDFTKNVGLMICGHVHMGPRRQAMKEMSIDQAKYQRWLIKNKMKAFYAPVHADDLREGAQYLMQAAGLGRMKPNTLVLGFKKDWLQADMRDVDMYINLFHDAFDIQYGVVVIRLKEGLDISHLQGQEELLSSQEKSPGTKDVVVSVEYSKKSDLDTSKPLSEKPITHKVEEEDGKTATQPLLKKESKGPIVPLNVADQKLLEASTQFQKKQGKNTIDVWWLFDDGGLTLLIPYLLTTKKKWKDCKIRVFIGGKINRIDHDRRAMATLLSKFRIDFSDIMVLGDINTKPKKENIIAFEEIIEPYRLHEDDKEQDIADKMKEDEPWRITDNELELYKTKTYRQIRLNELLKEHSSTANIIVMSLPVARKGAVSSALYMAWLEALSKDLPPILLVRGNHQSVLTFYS
Put plainly: NKCC1-mediated K+ influx (83Rb tracer uptake) in native HEK293 cells, hypertonic saline, 100 μM ouabain. The series is classed as cell-based. The method in brief:
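Native cells in slightly hypertonic saline with 100 μM ouabain; 15 min preincubation then 15 min 83Rb uptake (0.25 μCi/mL), scintillation counting normalized to protein. Compounds at 2 μM and 20 μM; flux scaled 1000 (no drug) to 0 (20 μM bumetanide), triplicate dishes.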

In series [2] the test system is NKCC1-KO HEK293 cells. Put plainly: K+ influx (83Rb uptake) in NKCC1-KO HEK293 cells. The series is classed as cell-based, human. The protocol: A. Contribution of NKCC1 to K^+ influx in native HEK293 cells under isosmotic (basal) conditions. K^+ influx was measured in untreated cells (Cntr), cells exposed to 100 μM ouabain (ouab), 20 μM bumetanide (bum), or both. B. Signal separation between native HEK293 cells with and without 20 μM bumetanide. Cells were tested in a hypertonic saline and in the presence of 100 μM ouabain. These conditions became our standard conditions for drug testing. C. Absence of bumetanide-sensitive K^+ influx in A-NKCC1 HEK293 cells. Note that the K^+ influx was reduced to basal levels.
NKCC1 expression was eliminated from HEK293 cells using CRISPR/cas9. Cells were transfected with a vector expressing a cas9-EGFP fusion protein and a guide RNA specific to a NKCC1 sequence ([…]; SEQ ID NO: 1) located within exon 1. Two days post transfection, cells were FACS sorted and cells expressing EGFP and cas9 (green cells) were plated at 1 cell per well in 96 well plates. Cells were grown to confluence, duplicated, and tested for NKCC1 function using Tl+ (another congener of K^+) and a thallium sensitive fluorescent dye in the presence or absence of bumetanide.

The conditions of series [3]: cited from earlier work.
Series [4] relates to NKCC2. The settings on record: in words; cited from earlier work.
For series [5] the following is noted: Fragile X, Tuberous Sclerosis, Down syndrome, or Parkinson Disease; cited from earlier work.
Setting [6] is: HEK293, 2 μM, no drug = 1000, 20 μM bumetanide = 0, read-out: NKCC1 mediated flux inhibition at 2 μM (%).
Where [7] appears, read: HEK293, 20 μM, no drug = 1000, 20 μM bumetanide = 0, read-out: NKCC1 mediated flux inhibition at 20 μM (%).
The mark [8] stands for this setting: 2 μM, native HEK293, read-out: Percent inhibition of drugs on NKCC1, 2 uM.
The mark [9] stands for this setting: 20 μM, native HEK293, read-out: Percent inhibition of drugs on NKCC1, 20 uM.

With `CCCCNc1cc(C(=O)O)cc(S(N)(=O)=O)c1Oc1ccccc1` [Bumetanide], in series [1] (2 μM, no drug flux=1000, 20 μM bumetanide flux=0, n=6), the “flux (normalized)” value was 171±21. The “effect on K+ influx in NKCC1-KO cells” value in series [2] is recorded as “no longer affected K^+ influx”. In addition, the “brain levels lower than the plasma” value in series [3] (brain vs plasma) was 200-300 fold. The “blood brain barrier permeability” value in series [3] (in words) is reported as “quite impermeable”. Besides, the diuretic potency entry in series [4] is reported as “high diuretic potency”. Further, in series [5], the “attenuation of severity of disorders” value was “attenuation”.
`CCCCNc1cc(C(=O)NCCC(F)(F)F)cc(S(=N)(=O)Nc2ccccc2)c1Oc1ccccc1` (centres unmarked) [Compound 120, 3-(anilinosulfonimidoyl)-5-(butylamino)-4-phenoxy-N-(3,3,3-trifluoropropyl)benzamide]: in series [1] (setting [6]), the inhibition at 2 µM is 30 to 50%. Further, the inhibition at 20 µM in series [1] (setting [7]) was 30 to 50%.
Regarding `CCCCNc1cc(C(=O)NOC)cc(S(=N)(=O)NC2CCOCC2)c1Oc1ccccc1` (centres unmarked) [Compound 121, 3-(butylamino)-N-methoxy-4-phenoxy-5-[(tetrahydropyran-4-ylamino)sulfonimidoyl]benzamide], in series [1] (setting [6]), the inhibition at 2 µM is 30 to 50%. The inhibition at 20 µM in series [1] (setting [7]) was 30 to 50%.
On to `CCCCNc1cc(C(=O)NCCOC)cc(S(=N)(=O)NC2CCOCC2)c1Oc1ccccc1` (centres unmarked) [Compound 122, 3-(butylamino)-N-(2-methoxyethyl)-4-phenoxy-5-[(tetrahydropyran-4-ylamino)sulfonimidoyl]benzamide], for which, in series [1] (setting [6]), the inhibition at 2 µM lay in the range of 30 to 50%. Moreover, in series [1] (setting [7]), the inhibition at 20 µM fell in the range of 30 to 50%.
Take `CCCCNc1cc(C(=O)NCC(F)(F)F)cc(S(=N)(=O)NC2CCOCC2)c1Oc1ccccc1` (centres unmarked) [Compound 123, 3-(butylamino)-4-phenoxy-5-[(tetrahydropyran-4-ylamino)sulfonimidoyl]-N-(2,2,2-trifluoroethyl)benzamide]: the inhibition at 2 µM in series [1] (setting [6]) fell in the range of 30 to 50%. For the same compound, the inhibition at 20 µM in series [1] (setting [7]) is 10 to 30%.
Taken in the same sequence, the figures for `CCCCNc1cc(C(=O)OC)cc(S(=O)(=O)Nc2ccccc2)c1Oc1ccccc1` [Compound 124, methyl 3-(butylamino)-4-phenoxy-5-(phenylsulfamoyl)benzoate] were 30 to 50% and 30 to 50%.
Taken in the same sequence, the figures for `CCCCNc1cc(C(=O)O)cc(S(=O)(=O)Nc2ccccc2)c1Oc1ccccc1` [Compound 125, 3-(butylamino)-4-phenoxy-5-(phenylsulfamoyl)benzoic acid] were no less than 75% and no less than 75%.
Taken in the same sequence, the figures for `CCCCNc1cc(-c2nnn[nH]2)cc(S(=O)(=O)Nc2ccccc2)c1Oc1ccccc1` [Compound 126, 3-(butylamino)-2-phenoxy-N-phenyl-5-(1H-tetrazol-5-yl)benzenesulfonamide] were 30 to 50% and no less than 75%.
As to `CCCCNc1cc(-c2nc(=O)o[nH]2)cc(S(=O)(=O)Nc2ccccc2)c1Oc1ccccc1` [Compound 127, 3-(butylamino)-5-(5-oxo-2H-1,2,4-oxadiazol-3-yl)-2-phenoxy-N-phenyl-benzenesulfonamide], the inhibition at 2 µM in series [1] (setting [6]) is 10 to 30%. For the same compound, in series [1] (setting [7]), the inhibition at 20 µM lay in the range of 30 to 50%.
Taken in the same sequence, the figures for `CCCCNc1cc(C(=O)O)cc(S(C)(=N)=O)c1Oc1ccccc1` (centres unmarked) [Compound 130, 3-(butylamino)-5-(methylsulfonimidoyl)-4-phenoxy-benzoic acid] were 10 to 30% and 50 to 75%.
Taken in the same sequence, the figures for `CCCCN=S(C)(=O)c1cc(C(=O)O)cc(NCCCC)c1Oc1ccccc1` (centres unmarked) [Compound 131, 3-(butylamino)-5-(N-butyl-S-methyl-sulfonimidoyl)-4-phenoxy-benzoic acid] were 30 to 50% and no less than 75%.
Taken in the same sequence, the figures for `CN=S(C)(=O)c1cc(C(=O)OC)cc(N)c1Oc1ccccc1` (centres unmarked) [Compound 132, methyl 3-amino-5-(N,S-dimethylsulfonimidoyl)-4-phenoxy-benzoate] were 30 to 50% and 10 to 30%.
For `CCCCNc1cc(C(=O)OC)cc(S(C)(=O)=NC)c1Oc1ccccc1` (centres unmarked) [Compound 133, methyl 3-(butylamino)-5-(N,S-dimethylsulfonimidoyl)-4-phenoxy-benzoate], the inhibition at 2 µM in series [1] (setting [6]) is 30 to 50%. Besides, in series [1] (setting [7]), the inhibition at 20 µM lay within 10 to 30%.
Taken in the same sequence, the figures for `CCCCNc1cc(C(=O)O)cc(S(C)(=O)=NC)c1Oc1ccccc1` (centres unmarked) [Compound 134, 3-(butylamino)-5-(N,S-dimethylsulfonimidoyl)-4-phenoxy-benzoic acid] were 30 to 50% and 50 to 75%.
As for `C[C@@H]1O[C@@H](O[C@H]2C[C@@H](O)[C@]3(CO)[C@H]4[C@H](O)C[C@]5(C)[C@@H](C6=CC(=O)OC6)CC[C@]5(O)[C@@H]4CC[C@]3(O)C2)[C@H](O)[C@H](O)[C@H]1O` [Ouabain, ouabain, reference compound], in series [1] (100 μM, inhibitor of the Na+/K+ pump), the “effect on flux not mediated by the cotransporter” value is “greatly reduced the flux not mediated by the cotransporter”.
In the case of `CCCCNc1cc(C(=O)O)cc(S(N)(=O)=O)c1Oc1ccccc1` [Ref 1, bumetanide, reference compound], the inhibition at 2 µM in series [1] (setting [8]) was found to be 87%. Moreover, the inhibition at 20 µM in series [1] (setting [9]) came out at 100%. The “K+ influx in the presence of compound” value in series [1] (20 μM, native HEK293 without compound 7000-9000) is 600-900 pmoles K+ per mg protein per m.
For `NS(=O)(=O)c1cc(C(=O)O)c(NCc2ccco2)cc1Cl` [Ref 2, furosemide, reference compound], in series [1] (setting [8]), the inhibition at 2 µM was determined as 32%. Further, in series [1] (setting [9]), the inhibition at 20 µM was 77%.
